According to the NIST ThermoML archive (doi:10.1016/j.jct.2019.02.011):

Assay: xn = mol fraction of the nth substance listed
Details: Liquid, Vibrating tube method

COC(=O)OC [dimethyl carbonate] + CCCO
mass density [kg/m3]
Details | 100 kPa | 5000 kPa | 10000 kPa | 15000 kPa | 20000 kPa | 25000 kPa | 30000 kPa | 35000 kPa | 40000 kPa
303.15 K, x1 = 0.0273 | – | – | – | – | – | – | – | 827.45 | 830.37
303.15 K, x1 = 0.0506 | – | – | – | – | – | – | – | 834.14 | 837.11
303.15 K, x1 = 0.0755 | – | – | – | – | – | – | – | 841.27 | 844.3
303.15 K, x1 = 0.1007 | – | – | – | – | – | – | – | 848.4 | 851.44
303.15 K, x1 = 0.1495 | – | – | – | – | – | – | – | 862.14 | 865.25
303.15 K, x1 = 0.2003 | – | – | – | – | – | – | – | 876.43 | 879.56
303.15 K, x1 = 0.2529 | – | – | – | – | – | – | – | 891.09 | 894.28
303.15 K, x1 = 0.2993 | – | – | – | – | – | – | – | 903.84 | 907.1
303.15 K, x1 = 0.3497 | – | – | – | – | – | – | – | 917.64 | 920.92
303.15 K, x1 = 0.401 | – | – | – | – | – | – | – | 931.51 | 934.85
303.15 K, x1 = 0.4509 | – | – | – | – | – | – | – | 944.84 | 948.26
303.15 K, x1 = 0.5002 | – | – | – | – | – | – | – | 958 | 961.43
303.15 K, x1 = 0.5498 | – | – | – | – | – | – | – | 971.12 | 974.61
303.15 K, x1 = 0.5996 | – | – | – | – | – | – | – | 984.2 | 987.76
303.15 K, x1 = 0.6499 | – | – | – | – | – | – | – | 997.34 | 1000.93
303.15 K, x1 = 0.7006 | – | – | – | – | – | – | – | 1010.45 | 1014.1
303.15 K, x1 = 0.7471 | – | – | – | – | – | – | – | 1022.39 | 1026.05
303.15 K, x1 = 0.7989 | – | – | – | – | – | – | – | 1035.67 | 1039.35
303.15 K, x1 = 0.8491 | – | – | – | – | – | – | 1044.84 | 1048.52 | 1052.22
303.15 K, x1 = 0.8993 | – | – | – | – | – | – | 1057.6 | 1061.28 | 1065.05
303.15 K, x1 = 0.9249 | – | – | – | – | – | – | 1064.01 | 1067.75 | 1071.52
303.15 K, x1 = 0.9489 | – | – | – | – | – | – | 1070.02 | 1073.76 | 1077.54
303.15 K, x1 = 0.9743 | – | – | – | – | – | – | 1076.38 | 1080.13 | 1083.97
303.15 K, x1 = 1 | – | – | – | – | – | – | 1082.9 | 1086.6 | 1090.4
308.15 K, x1 = 0.0273 | 798.56 | 802.69 | 806.56 | 810.18 | 813.81 | 817.21 | 820.58 | 823.72 | 826.71
308.15 K, x1 = 0.0506 | 804.88 | 809.05 | 812.98 | 816.65 | 820.28 | 823.74 | 827.15 | 830.34 | 833.34
308.15 K, x1 = 0.0755 | 811.69 | 815.86 | 819.84 | 823.57 | 827.25 | 830.71 | 834.12 | 837.36 | 840.41
308.15 K, x1 = 0.1007 | 818.55 | 822.77 | 826.76 | 830.48 | 834.21 | 837.72 | 841.19 | 844.43 | 847.53
308.15 K, x1 = 0.1495 | 831.9 | 836.17 | 840.21 | 844.04 | 847.82 | 851.38 | 854.86 | 858.14 | 861.25
308.15 K, x1 = 0.2003 | 845.6 | 849.97 | 854.07 | 857.95 | 861.78 | 865.4 | 868.98 | 872.31 | 875.47
308.15 K, x1 = 0.2529 | 859.71 | 864.12 | 868.28 | 872.21 | 876.1 | 879.78 | 883.42 | 886.79 | 890
308.15 K, x1 = 0.2993 | 872.12 | 876.53 | 880.75 | 884.73 | 888.67 | 892.4 | 896.05 | 899.42 | 902.69
308.15 K, x1 = 0.3497 | 885.38 | 889.84 | 894.11 | 898.2 | 902.19 | 905.97 | 909.68 | 913.1 | 916.37
308.15 K, x1 = 0.401 | 898.75 | 903.3 | 907.64 | 911.77 | 915.81 | 919.66 | 923.42 | 926.84 | 930.17
308.15 K, x1 = 0.4509 | 911.74 | 916.34 | 920.73 | 924.87 | 928.97 | 932.87 | 936.64 | 940.1 | 943.48
308.15 K, x1 = 0.5002 | 924.45 | 929.1 | 933.55 | 937.74 | 941.84 | 945.79 | 949.62 | 953.13 | 956.52
308.15 K, x1 = 0.5498 | 937.17 | 941.82 | 946.33 | 950.57 | 954.72 | 958.68 | 962.57 | 966.12 | 969.52
308.15 K, x1 = 0.5996 | 949.8 | 954.5 | 959.02 | 963.36 | 967.52 | 971.54 | 975.48 | 979.03 | 982.49
308.15 K, x1 = 0.6499 | 962.55 | 967.29 | 971.88 | 976.22 | 980.43 | 984.5 | 988.45 | 992.05 | 995.51
308.15 K, x1 = 0.7006 | 975.36 | 980.15 | 984.79 | 989.19 | 993.45 | 997.53 | 1001.49 | 1005.08 | 1008.6
308.15 K, x1 = 0.7471 | 986.95 | 991.79 | 996.49 | 1000.94 | 1005.2 | 1009.34 | 1013.35 | 1016.99 | 1020.52
308.15 K, x1 = 0.7989 | 999.88 | 1004.72 | 1009.48 | 1013.98 | 1018.3 | 1022.49 | 1026.51 | 1030.15 | 1033.73
308.15 K, x1 = 0.8491 | 1012.38 | 1017.27 | 1022.04 | 1026.54 | 1030.91 | 1035.16 | 1039.19 | 1042.88 | 1046.46
308.15 K, x1 = 0.8993 | 1024.9 | 1029.78 | 1034.61 | 1039.16 | 1043.54 | 1047.79 | 1051.88 | 1055.57 | 1059.15
308.15 K, x1 = 0.9249 | 1031.23 | 1036.11 | 1040.95 | 1045.55 | 1049.98 | 1054.24 | 1058.33 | 1062.01 | 1065.61
308.15 K, x1 = 0.9489 | 1037.12 | 1042.05 | 1046.89 | 1051.5 | 1055.93 | 1060.19 | 1064.28 | 1068.02 | 1071.61
308.15 K, x1 = 0.9743 | 1043.46 | 1048.4 | 1053.24 | 1057.85 | 1062.28 | 1066.54 | 1070.69 | 1074.37 | 1078.02
308.15 K, x1 = 1 | 1049.91 | 1054.84 | 1059.69 | 1064.3 | 1068.73 | 1073 | 1077.1 | 1080.78 | 1084.38
